Source: patent US20240254132A1, “COMPOUNDS, COMPOSITIONS AND METHODS” (Denali Therapeutics Inc., priority 2021, published 2024)

System: IL-1β secretion, THP-1 cells
Assay: IL-1β secretion assay in PMA-differentiated THP-1 cells (LPS + nigericin stimulation, IL-1β ELISA)
Assay type: cell-based
Settings: Homo sapiens, LPS 25 ng/mL, IL-1β by ELISA
Protocol: Compounds as provided herein were tested in the following assay. Cell culture medium employed contained RPMI 1640 medium (89%), FBS (10%), Pen/Strep (1%), and 2-mercaptoethanol (0.05 mm). Freezing medium was made up of 90% FBS and 10% DMSO. THP-1 cells were removed from the liquid nitrogen and placed into a 37° C. water bath to thaw, until signs of ice dissipated. The cells were then added to 9 mL of warm cell culture medium and centrifuged for 5 minutes at 1000 rpm. The supernatant was discarded, and the cells were resuspended in new cell culture medium. THP-1 cells were then split and cultured in the cell culture medium, being passaged every 2-3 days with the cell density will be maintained between 5×10^5 and 1.5×10^6 viable cells/mL.
Procedure for […], Secretion Assay in 384-Well Plates
PMA was dissolved in DMSO to make a stock solution at 5 mg/mL and stored in 10 μl aliquots at −20° C. for single use. PMA is added to normal growth medium. LPS was diluted with 1 mL of water solution to provide a 1 mg/mL stock solution and stored in 15 μl aliquots at −20° C. for single use. Nigericin is diluted in ice cold 100% ethanol to 5 mg/mL (6.7 mM) and stored in 75 μL aliquots at −20° C. for single use. Serum-free media contains RPMI 1640 medium (99%), Pen/Strep (1%), and 2-mercaptoethanol (0.05 mM). The two control conditions used to qualify and normalize test compound dose-response curves were as follows: High Control=25 ng/mL LPS, 5 μM Nigericin, 0.5% DMSO, Low Control=25 ng/mL, LPS, 0.5% DMSO.
THP-1 cells were diluted to provide a suspension at a concentration of 1.0×10^6 cells/mL with the total volume of suspension required to enable the desired number of assay plates. The growth media was supplemented with PMA (5 ng/mL final concentration) and the cells were incubated at 37° C. under a humidified atmosphere of 5% CO2 for 40 h.
All media was carefully aspirated from each culture flask. The cells were washed carefully with 1×DPBS. The cells were then briefly digested with trypsin LE for 5 minutes at 23° C. and immediately resuspended in cell growth media. After resuspension, the cells were centrifuged at 1000 rpm for 3 minutes and the supernatant was discarded. The cells were resuspended in DPBS and once again centrifuged at 1000 rpm for 5 minutes. The supernatant was discarded and the cell pellet was resuspended in serum-free media supplemented with LPS (25 ng/mL final concentration) to enable the distribution of 30K THP-1 cells within 45 μL of media into each well of 384-well PDL-coated plates. The 384-well plates were then incubated at 37° C. under a humidified atmosphere of 5% CO2 for 2 h. Following this period, test compounds were dispensed by Tecan across the desired concentration range with all wells normalized to a final 0.5% DMSO concentration. The plates were then incubated at 37° C. under a humidified atmosphere of 5% CO2 for 1 h. Following this period, 5 μL of the 5 mg/mL nigericin stock solution was added to each of the appropriate wells and plates were centrifuged at 1000 rpm for 30 seconds. The plates were the immediately reintroduced to the incubator at 37° C. under a humidified atmosphere of 5% CO2 for 2 h. After this time, 35 μL/well of supernatant was collected and transferred into v-bottom plate and centrifuged at 1000 rpm for 1 minute. These supernatant aliquots were analyzed using an IL-Iβ detection kit as described below. If needed, the test samples could be snap frozen and stored at −80° C. until analyzed.
To prepare each ELISA plate, capture antibody (mAb Mt175) was diluted with PBS to a final concentration of 2 μg/mL and then 20 μL of this solution was added to each well of the ELISA plate. Each plate was allowed to incubate overnight at 4° C. The next day, the capture antibody solution was removed and discarded. Each ELISA plate was washed 4 times with PBST followed by the addition of 25 μL/well of blocking buffer (Licor-927-40010) supplemented with 0.1% Tween 20. […]

Compound	IC50 (THP-1, class symbol)	IC50 (THP-1, numeric value)
Cc1cnc(NC(=O)CN2C(=O)c3ccc(Br)c(F)c3C3(CC3)C2=O)nc1 [Example 20, 2-(6′-bromo-5′-fluoro-1′,3′-dioxospiro[cyclopropane-1,4′-isoquinoline]-2′-yl)-N-(5-methylpyrimidin-2-yl)acetamide]	< 10000 nM	261 nM
CC(C(=O)Nc1ncc(F)cn1)N1C(=O)c2ccc(Br)c(F)c2C2(CC2)C1=O (stereo not shown) [Example 21, 2-(6′-bromo-5′-fluoro-1′,3′-dioxospiro[cyclopropane-1,4′-isoquinoline]-2′-yl)-N-(5-fluoropyrimidin-2-yl)propanamide]	< 10000 nM	936 nM
O=C1c2ccc(Br)cc2C2(CC2)C(=O)N1C1(C(=O)Nc2ncc(F)cn2)CC1 [Example 22, 1-(6′-bromo-1′,3′-dioxospiro[cyclopropane-1,4′-isoquinoline]-2′-yl)-N-(5-fluoropyrimidin-2-yl)cyclopropane-1-carboxamide]	< 10000 nM	8080 nM
CCC(C(=O)Nc1ncc(F)cn1)N1C(=O)c2ccc(Br)cc2C2(CC2)C1=O (stereo not shown) [Example 23, 2-(6′-bromo-1′,3′-dioxospiro[cyclopropane-1,4′-isoquinoline]-2′-yl)-N-(5-fluoropyrimidin-2-yl)butanamide]	< 10000 nM	2170 nM
O=C(CN1C(=O)c2ccc(Br)c(F)c2C2(CC2)C1=O)Nc1ncc2cn[nH]c2n1 [Example 24, 2-(6′-bromo-5′-fluoro-1′,3′-dioxospiro[cyclopropane-1,4′-isoquinoline]-2′-yl)-N-(1H-pyrazolo[3,4-d]pyrimidin-6-yl)acetamide]	< 10000 nM	88 nM
CC1CC12C(=O)N(CC(=O)Nc1ncc(F)cn1)C(=O)c1ccc(Br)cc12 (stereo not shown) [Example 25, 2-(6′-bromo-2-methyl-1′,3′-dioxospiro[cyclopropane-1,4′-isoquinoline]-2′-yl)-N-(5-fluoropyrimidin-2-yl)acetamide]	< 10000 nM	391 nM
N#Cc1cnc(NC(=O)CN2C(=O)c3ccc(Br)c(F)c3C3(CC3)C2=O)nc1 [Example 26, 2-(6′-bromo-5′-fluoro-1′,3′-dioxospiro[cyclopropane-1,4′-isoquinoline]-2′-yl)-N-(5-cyanopyrimidin-2-yl)acetamide]	< 10000 nM	90 nM
O=C(CN1C(=O)c2ccc(Br)c(F)c2C2(CC2)C1=O)Nc1ncc(F)cn1 [Example 29, 2-(6′-bromo-5′-fluoro-1′,3′-dioxospiro[cyclopropane-1,4′-isoquinoline]-2′-yl)-N-(5-fluoropyrimidin-2-yl)acetamide]	< 10000 nM	99 nM
N#Cc1cnc(NC(=O)CN2C(=O)c3ccc(Br)cc3C3(CC3)C2=O)nc1 [Example 31, 2-(6′-bromo-1′,3′-dioxospiro[cyclopropane-1,4′-isoquinoline]-2′-yl)-N-(5-cyanopyrimidin-2-yl)acetamide]	< 10000 nM	208 nM
O=C(CN1C(=O)c2ccc(Br)cc2C2(CC2)C1=O)Nc1ncc(Cl)cn1 [Example 32, 2-(6′-bromo-1′,3′-dioxospiro[cyclopropane-1,4′-isoquinoline]-2′-yl)-N-(5-chloropyrimidin-2-yl)acetamide]	< 10000 nM	137 nM
O=C(CN1C(=O)c2ccc(Br)cc2C2(CC2)C1=O)Nc1ncc(F)cn1 [Example 33, 2-(6′-bromo-1′,3′-dioxospiro[cyclopropane-1,4′-isoquinoline]-2′-yl)-N-(5-fluoropyrimidin-2-yl)acetamide]	< 10000 nM	184 nM
